{"source": "patent US5952183A", "about": "“Synthesis of estrogen-purine base and estrogen-mercapturate adducts and development of fluorescent probes and monoclonal antibodies to assay those adducts” (priority 1998, dated 1999)", "key": {"DNA": {"test_system": "DNA", "test": "Formation of DNA adducts by quinones or horseradish peroxidase-activated catechol estrogens in vitro (32P-postlabeling for stable adducts)", "assay_type": "biochemical", "description": "First, the o-quinones of estrogens are capable of binding directly to the nucleophilic groups of DNA bases. Second, the 3,4-quinones of estrogens produce depurinating adducts that are lost from DNA, generating apurinic sites in the DNA; and third, the 2,3-quinones form stable adducts that remain bound to DNA if not repaired. In fact, reaction of 2,3- and 3,4-quinones with DNA or CE activated by horseradish peroxidase in the presence of DNA affords differential formation of stable adducts, as evidenced by 32P-postlabeling analysis. The 2,3-quinones form 10-50 times higher levels of stable adducts than the 3,4-quinones."}, "DNA, rat mammary gland": {"test_system": "DNA, rat mammary gland", "test": "Formation of depurinating DNA adducts in the rat mammary gland", "assay_type": "in vivo"}, "hamster kidney": {"test_system": "hamster kidney", "settings": "Syrian golden hamsters; cited from earlier work"}, "[1]": {"test": "Stability of estrogen quinones at various pH (remaining quinone by HPLC)", "assay_type": "physicochemical", "description": "Because acidic conditions were used to generate these estrogen-nucleoside adducts, an investigation was conducted of the effects of pH on the stability of both the 3,4- and 2,3-quinones.\n^a pH was adjusted with the following buffers: pH 9, trisHCl; pH 7,\ndistilled H2 O; […]; pH 3, citric acid.\n^b t1/2 is defined as the time when 1/2 of the original quinone\nconcentration was observed by HPLC\n^c Quinones (0.02 mmol) were synthesized in 2 mL of CH3 CN and\nplaced in 10 mL of aqueous buffer"}, "[2]": {"test": "1H-NMR monitoring of E1-2,3-Q to quinone methide tautomerization in CH3CN-d3", "assay_type": "physicochemical"}, "[3]": {"settings": "published isomerization study of model o-quinone; cited from earlier work"}}, "note": "Read-outs that look alike come from different tables or passages of the source."}
{"smiles": "C[C@]12CC[C@@H]3c4ccc(O)c(O)c4CC[C@H]3[C@@H]1CCC2=O", "note": "[4-OHE1, 4-hydroxyestrone]", "values": [{"measurement": "formation of depurinating E1(E2)-1-(α,β)-N7Gua adducts", "setting": "DNA", "value": "almost exclusively"}, {"measurement": "formation of depurinating E1(E2)-1-(α,β)-N7Gua adducts", "setting": "DNA, rat mammary gland; rat, in vivo", "value": "almost exclusively"}]}
{"smiles": "C[C@]12CC[C@@H]3c4ccc(O)c(O)c4CC[C@H]3[C@@H]1CC[C@@H]2O", "note": "[4-OHE2, 4-hydroxyestradiol]", "values": [{"measurement": "formation of depurinating E1(E2)-1-(α,β)-N7Gua adducts", "setting": "DNA; in vitro, 3,4-quinones or enzymically-activated 4-OHE1/4-OHE2", "value": "almost exclusively"}, {"measurement": "formation of depurinating E1(E2)-1-(α,β)-N7Gua adducts", "setting": "DNA, rat mammary gland; rat mammary gland", "value": "almost exclusively"}]}
{"smiles": "C[C@]12CC[C@@H]3c4ccc(O)cc4CC[C@H]3[C@@H]1CCC2=O", "note": "[E1, estrone]", "values": [{"measurement": "induction of renal tumors / carcinogenicity", "setting": "hamster kidney", "value": "Malignant renal tumors are induced"}]}
{"smiles": "C[C@]12CC[C@@H]3C4=CC(=O)C(=O)C=C4CC[C@H]3[C@@H]1CCC2=O", "note": "[E1-2,3-Q]", "values": [{"measurement": "effect of lowering pH on stability", "setting": "[1]", "value": "did not"}, {"measurement": "decomposition under mildly basic conditions", "setting": "[1]", "value": "decomposed rapidly"}, {"measurement": "half-life", "setting": "[1]; pH 3, citric acid, read-out: t1/2 (time when 1/2 of the original quinone concentration was observed by HPLC)", "value": 70, "unit": "min"}, {"measurement": "half-life", "setting": "[1]; pH 5, trizma, read-out: t1/2 (time when 1/2 of the original quinone concentration was observed by HPLC)", "value": 110, "unit": "min"}, {"measurement": "half-life", "setting": "[1]; pH 7, distilled H2O, read-out: t1/2 (time when 1/2 of the original quinone concentration was observed by HPLC)", "value": 110, "unit": "min"}, {"measurement": "half-life", "setting": "[1]; pH 9, trisHCl, read-out: t1/2 (time when 1/2 of the original quinone concentration was observed by HPLC)", "value": "< 5", "unit": "min"}, {"measurement": "change of 1H-NMR spectrum over time", "setting": "[2]; CH3CN-d3, two days", "value": "unchanged for two days"}, {"measurement": "change of o-quinone 1H-NMR spectrum over time with acid", "setting": "[2]; CH3CN-d3 with CF3CO2H-d, two weeks", "value": "no change in the o-quinone spectrum was observed"}]}
{"smiles": "O=C1C=C2CCCCC2=CC1=O", "values": [{"measurement": "o-quinone more stable when tautomerized to the QM by", "setting": "[3]", "value": 3.8, "unit": "kcal/mol"}]}
{"smiles": "C[C@]12CC[C@@H]3c4ccc(O)cc4CC[C@H]3[C@@H]1CC[C@@H]2O", "note": "[E2, 17β-estradiol]", "values": [{"measurement": "induction of renal tumors / carcinogenicity", "setting": "hamster kidney", "value": "Malignant renal tumors are induced"}]}
{"smiles": "C[C@]12CC[C@@H]3C4=C(CC[C@H]3[C@@H]1CCC2=O)C(=O)C(=O)C=C4", "note": "[E1-3,4-Q]", "values": [{"measurement": "effect of lowering pH on stability", "setting": "[1]", "value": "marked increase in stability"}, {"measurement": "half-life", "setting": "[1]; citric acid, pH 3", "value": 390, "unit": "min"}, {"measurement": "half-life", "setting": "[1]; distilled h2o, pH 7", "value": 110, "unit": "min"}, {"measurement": "decomposition under mildly basic conditions", "setting": "[1]", "value": "decomposed rapidly"}, {"measurement": "half-life", "setting": "[1]; trishcl, pH 9", "value": "< 5", "unit": "min"}, {"measurement": "half-life", "setting": "[1]; trizma, pH 5", "value": 190, "unit": "min"}]}
